Experiment [1] has as its target T1, D(2) dopamine receptor (Homo sapiens, UniProt P14416).
Experiment [2] concerns the target T2, D(3) dopamine receptor (Homo sapiens, UniProt P35462).
Experiment [3] concerns the target D(2) dopamine receptor (Rattus norvegicus, UniProt P61169). Briefly: biochemical.
The target of experiment [4] is T1, D(2) dopamine receptor. Briefly: Agonist activity at human dopamine D2L receptor expressed in CHO cells assessed as stimulation of [35S]GTPgamma binding relative to 1 mM dopamine. Format: functional, cell-based.
Experiment [5] concerns the target T1, D(2) dopamine receptor. Briefly: biochemical.
Experiment [6] concerns the target T2, D(3) dopamine receptor. Briefly: biochemical.
The test system of experiment [7] is Radical scavenging activity.
Description: Antioxidant activity assessed as DPPH radical scavenging activity
Experiment [8] concerns the target T3, D(3) dopamine receptor (Rattus norvegicus, UniProt P19020). Kind of experiment: biochemical.
The target of experiment [9] is T3, D(3) dopamine receptor.

Molecules are shown by their SMILES.

Chain of D(2) dopamine receptor (Rattus norvegicus, UniProt P61169) (P61169 whole entry): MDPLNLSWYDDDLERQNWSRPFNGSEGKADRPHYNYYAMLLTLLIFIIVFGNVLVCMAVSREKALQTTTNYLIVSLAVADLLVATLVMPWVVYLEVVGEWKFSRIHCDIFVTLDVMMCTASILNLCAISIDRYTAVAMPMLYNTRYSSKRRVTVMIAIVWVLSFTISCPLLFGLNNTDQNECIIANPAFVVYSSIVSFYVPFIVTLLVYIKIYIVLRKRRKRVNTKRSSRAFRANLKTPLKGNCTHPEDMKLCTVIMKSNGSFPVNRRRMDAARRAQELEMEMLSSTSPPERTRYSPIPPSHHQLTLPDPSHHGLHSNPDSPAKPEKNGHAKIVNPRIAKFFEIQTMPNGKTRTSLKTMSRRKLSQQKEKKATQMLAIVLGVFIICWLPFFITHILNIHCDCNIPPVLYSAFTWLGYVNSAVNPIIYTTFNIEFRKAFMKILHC
T2 sequence (P35462 whole entry): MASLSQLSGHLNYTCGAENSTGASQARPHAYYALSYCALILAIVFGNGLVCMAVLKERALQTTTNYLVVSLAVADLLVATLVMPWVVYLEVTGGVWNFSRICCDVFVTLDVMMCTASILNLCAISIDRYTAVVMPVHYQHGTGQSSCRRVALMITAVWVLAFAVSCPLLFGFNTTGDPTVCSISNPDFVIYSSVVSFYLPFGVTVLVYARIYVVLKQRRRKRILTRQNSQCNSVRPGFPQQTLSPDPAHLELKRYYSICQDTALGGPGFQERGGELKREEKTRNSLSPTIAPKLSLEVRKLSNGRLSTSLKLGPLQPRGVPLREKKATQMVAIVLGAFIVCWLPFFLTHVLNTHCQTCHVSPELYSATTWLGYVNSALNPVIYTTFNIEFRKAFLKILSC
T3 sequence (P19020 whole entry): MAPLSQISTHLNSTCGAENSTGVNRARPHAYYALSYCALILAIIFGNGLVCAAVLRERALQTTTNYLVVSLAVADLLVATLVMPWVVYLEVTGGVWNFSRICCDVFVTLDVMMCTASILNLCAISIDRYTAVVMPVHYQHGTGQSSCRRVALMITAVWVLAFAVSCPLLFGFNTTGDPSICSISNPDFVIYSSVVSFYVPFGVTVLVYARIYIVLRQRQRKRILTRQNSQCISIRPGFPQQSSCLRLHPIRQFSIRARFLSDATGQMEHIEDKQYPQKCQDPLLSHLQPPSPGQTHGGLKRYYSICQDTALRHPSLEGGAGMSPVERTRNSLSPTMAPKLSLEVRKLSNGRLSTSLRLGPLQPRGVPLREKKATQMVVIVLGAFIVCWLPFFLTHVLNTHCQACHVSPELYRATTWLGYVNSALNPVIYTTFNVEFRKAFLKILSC
T1 sequence (P14416 whole entry): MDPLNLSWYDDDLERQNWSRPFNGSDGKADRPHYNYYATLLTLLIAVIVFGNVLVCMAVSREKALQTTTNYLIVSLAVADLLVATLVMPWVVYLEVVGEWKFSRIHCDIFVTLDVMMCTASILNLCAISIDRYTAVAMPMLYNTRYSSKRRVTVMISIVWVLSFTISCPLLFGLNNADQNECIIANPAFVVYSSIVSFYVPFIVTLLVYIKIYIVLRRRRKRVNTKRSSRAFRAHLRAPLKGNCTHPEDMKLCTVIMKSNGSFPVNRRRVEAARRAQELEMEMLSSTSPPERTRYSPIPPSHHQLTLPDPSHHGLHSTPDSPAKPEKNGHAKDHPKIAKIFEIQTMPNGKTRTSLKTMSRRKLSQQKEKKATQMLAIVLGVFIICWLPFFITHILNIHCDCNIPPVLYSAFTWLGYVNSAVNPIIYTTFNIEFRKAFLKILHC

Turning to `CCCN(CCN1CCN(c2ccc(-c3ccccc3)cc2)CC1)[C@H]1CCc2nc(N)sc2C1`, the values for the EC50 in [1] and in experiment [2] were 19.9 nM and 0.085 nM, respectively.

In [3], `CCCN(CCN1CCN(c2ccc(-c3ccncc3)cc2)CC1)[C@H]1CCc2nc(N)sc2C1` had a Ki of 270 nM.

Take `CCCN(CCN1CCN(c2ccnc3ccccc23)CC1)[C@H]1CCc2nc(N)sc2C1`: the Emax in [4] was 118%. Moreover, the inhibitory constant (Ki) in experiment [3] is 109 nM. The figures for the EC50 in experiment [5] and in experiment [6] were 77.2 nM and 0.493 nM, respectively.

In [5], `CCCN(CCC)CCc1cccc2c1CC(=O)N2` [ROPINIROLE] showed an EC50 of 304 nM.

As for `CCCN(CCN1CCN(c2cccc3ncccc23)CC1)[C@H]1CCc2nc(N)sc2C1`, the Emax in experiment [4] came to 104%. 39700 nM corresponded to half-maximal inhibition in experiment [7] (IC50). The molecule also came in with an inhibition constant (Ki) in experiment [3] of 57.7 nM. Moreover, the EC50 in [5] is 13.5 nM; in experiment [6], 0.528 nM.

For the molecule `CCCN(CCN1CCN(c2nccc3ccccc23)CC1)[C@H]1CCc2nc(N)sc2C1`, the 50% effective concentration (EC50) is 116 nM in experiment [1] and 0.52 nM in [6]. Further, the IC50 in [7] came out at 45700 nM. For the same molecule, the Ki was determined as 2.23 nM in [8] and 269 nM in experiment [3].

Turning to `CCCN(CCN1CCN(c2nccc3ccccc23)CC1)C1CCc2ccc(O)cc2C1` (stereo not given), in experiment [3], affinity was put at a Ki of 21.7 nM.

In [3], `CCCN(CCN1CCN(c2ccc3ccccc3c2)CC1)C1CCc2ccc(O)cc2C1` (stereo not given) registered an inhibition constant Ki of 8.85 nM.

In experiment [3], `CCCN(CCN1CCN(c2cccc3ncccc23)CC1)C1CCc2ccc(O)cc2C1` (stereo not given) gave an inhibition constant (Ki) of 5.22 nM.

On to `CCCN(CCN1CCN(c2cccc3ccccc23)CC1)C1CCc2ccc(O)cc2C1` (stereo not given), for which affinity in experiment [3] was put at a Ki of 13.5 nM.

In the case of `CCCN(CCN1CCN(c2ccnc3ccccc23)CC1)C1CCc2ccc(O)cc2C1` (stereo not given), the Ki in experiment [8] was found to be 2.65 nM; in experiment [3] it was 7.08 nM.

For the molecule `CCCN(CCN1CCN(C(=O)c2cc3ccccc3[nH]2)CC1)[C@H]1CCc2c(O)cccc2C1`, affinity in [9] was put at a Ki of 0.57 nM.

As usually defined, the EC50 is the concentration needed to bring the measured effect to its halfway point. A higher EC50 goes with a need for much substance. Broadly, the Ki is the equilibrium dissociation constant of an inhibitor or competing ligand from its target. As usually defined, the Emax is the maximal effect, on the per cent scale that the assay sets. What is called IC50 is the point on the concentration scale where inhibition reaches its midpoint. The low end stands for greater potency, the high end for weaker potency.
